Laboratory results taken from the supplement of paper PMC13380429.

Columns and labels:
Conditions in all cases: 72 h
Caco-2 [1] = assay: drug sensitivity score (DSS) for viability; higher = more toxic; extreme values may be limits of the assay
U2OS [2] = assay: as above
Vero E6 [3] = assay: as above
HepG2 [4] = assay: as above
Calu-3 [5] = assay: as above
Caco-2 [6] = assay: relative viability EC50 (midpoint between 100% and the lowest measured viability); higher = less toxic
U2OS [7] = assay: as above
Vero E6 [8] = assay: as above
HepG2 [9] = assay: as above
Calu-3 [10] = assay: as above
Caco-2 [11] = assay: cell viability relative to DMSO; higher = less toxic
U2OS [12] = assay: as above
Vero E6 [13] = assay: as above
HepG2 [14] = assay: as above
Calu-3 [15] = assay: as above

| Structure (SMILES) | drug sensitivity score (Caco-2 [1]) | drug sensitivity score (U2OS [2]) | drug sensitivity score (Vero E6 [3]) | drug sensitivity score (HepG2 [4]) | drug sensitivity score (Calu-3 [5]) | relative viability EC50 (Caco-2 [6]) [µM] | relative viability EC50 (U2OS [7]) [µM] | relative viability EC50 (Vero E6 [8]) [µM] | relative viability EC50 (HepG2 [9]) [µM] | relative viability EC50 (Calu-3 [10]) [µM] | cell viability (Caco-2 [11]; 1 nM) [%] | cell viability (Caco-2 [11]; 10 nM) [%] | cell viability (Caco-2 [11]; 100 nM) [%] | cell viability (Caco-2 [11]; 1000 nM) [%] | cell viability (Caco-2 [11]; 10000 nM) [%] | cell viability (U2OS [12]; 1 nM) [%] | cell viability (U2OS [12]; 10 nM) [%] | cell viability (U2OS [12]; 100 nM) [%] | cell viability (U2OS [12]; 1000 nM) [%] | cell viability (U2OS [12]; 10000 nM) [%] | cell viability (Vero E6 [13]; 1 nM) [%] | cell viability (Vero E6 [13]; 10 nM) [%] | cell viability (Vero E6 [13]; 100 nM) [%] | cell viability (Vero E6 [13]; 1000 nM) [%] | cell viability (Vero E6 [13]; 10000 nM) [%] | cell viability (HepG2 [14]; 1 nM) [%] | cell viability (HepG2 [14]; 10 nM) [%] | cell viability (HepG2 [14]; 100 nM) [%] | cell viability (HepG2 [14]; 1000 nM) [%] | cell viability (HepG2 [14]; 10000 nM) [%] | cell viability (Calu-3 [15]; 1 nM) [%] | cell viability (Calu-3 [15]; 10 nM) [%] | cell viability (Calu-3 [15]; 100 nM) [%] | cell viability (Calu-3 [15]; 1000 nM) [%] | cell viability (Calu-3 [15]; 10000 nM) [%] |
| --- | --- | --- | --- | --- | --- | --- | --- | --- | --- | --- | --- | --- | --- | --- | --- | --- | --- | --- | --- | --- | --- | --- | --- | --- | --- | --- | --- | --- | --- | --- | --- | --- | --- | --- | --- |
| Cc1cccc(C)c1NC(=O)C1CCCCN1C (stereo not given) [mepivacaine] | 0 | 0 | 0 | 0 | 0 | > 10 | > 10 | > 10 | > 10 | > 10 | 92.1 | 81.4 | 102 | 90.6 | 108 | 98 | 95.8 | 99.4 | 97.4 | 104 | 96.3 | 91.4 | 99.2 | 103 | 107 | 96.8 | 107 | 105 | 115 | 104 | 89.7 | 97.8 | 93.9 | 99.6 | 103 |
| COc1ccc(O)cc1 [mequinol] | 0 | 0 | 0 | 1.7 | 0 | > 10 | > 10 | > 10 | > 10 | > 10 | 97.8 | 98.5 | 105 | 104 | 97.9 | 100 | 109 | 96.8 | 98.7 | 101 | 96.8 | 94.1 | 105 | 103 | 95.3 | 103 | 90 | 85.6 | 92.9 | 79.7 | 104 | 100 | 105 | 94.9 | 92.8 |
| O=C(O)CC(S)C(=O)O (stereo not given) [mercaptosuccinic-acid] | 0 | 0 | 0 | 0 | 0 | > 10 | > 10 | > 10 | > 10 | > 10 | 94 | 106 | 91.2 | 95.7 | 99.7 | 103 | 104 | 94.3 | 102 | 96.2 | 96.1 | 99.8 | 96.8 | 97.4 | 99.3 | 93.1 | 93.7 | 94.9 | 96.3 | 92.7 | 102 | 101 | 93.5 | 94.7 | 97.7 |
| CC[N+](C)(CC)CCOC(=O)C1c2ccccc2Oc2ccccc21 [methantheline] | 0 | 0 | 0 | 0 | 0 | > 10 | > 10 | > 10 | > 10 | > 10 | 91.6 | 108 | 89.1 | 99 | 96.3 | 99.1 | 100 | 100 | 104 | 97.8 | 95.3 | 97 | 94.4 | 93.2 | 93.8 | 102 | 88.7 | 97.9 | 79.8 | 97.5 | 99.9 | 96.2 | 103 | 106 | 88.9 |
| O=C(O)[C@H](CC(=O)N1C[C@H]2CCCC[C@H]2C1)Cc1ccccc1 [mitiglinide] | 0 | 0 | 0 | 0 | 0 | > 10 | > 10 | > 10 | > 10 | > 10 | 99.9 | 96.4 | 95 | 101 | 94.9 | 92.2 | 104 | 95.3 | 116 | 96.4 | 98.4 | 104 | 101 | 98.5 | 103 | 98.2 | 84.2 | 91.5 | 94.6 | 104 | 86.3 | 93 | 88.2 | 92.8 | 104 |
| O=c1c(-n2ccnn2)c[nH]n1-c1cc(N2CCOCC2)ncn1 [molidustat] | 0 | 0 | 0 | 0 | 0 | > 10 | > 10 | > 10 | > 10 | > 10 | 100 | 107 | 100 | 97.2 | 96 | 98.1 | 97.7 | 94.7 | 103 | 91.4 | 108 | 99.4 | 104 | 95.8 | 90.9 | 104 | 95.4 | 94.8 | 93.2 | 95.3 | 78.6 | 97.9 | 87.8 | 104 | 88 |
| CCOC(=O)C1=C(C)NC(=S)NC1c1cccc(O)c1 (stereo not given) [monastrol] | 0 | 0 | 0 | 0 | 0 | > 10 | > 10 | > 10 | > 10 | > 10 | 103 | 94.6 | 94.1 | 96 | 96.8 | 103 | 99 | 103 | 98.7 | 104 | 104 | 108 | 102 | 97.6 | 97.9 | 99.3 | 107 | 96.2 | 99.4 | 101 | 89.7 | 95.1 | 95.6 | 100 | 103 |
| CCCCN1CCCC1CNC(=O)c1cc(C#N)c2ccccc2c1OC (stereo not given) [nafadotride] | 0 | 0 | 0 | 0 | 0 | > 10 | > 10 | > 10 | > 10 | > 10 | 98.8 | 97.6 | 97.4 | 104 | 102 | 98.3 | 101 | 104 | 101 | 92.2 | 102 | 96.8 | 105 | 100 | 92.5 | 104 | 103 | 105 | 97.5 | 96.7 | 102 | 106 | 87.2 | 105 | 97.1 |
| Cc1cccc(C)c1NC(=O)CN1CCCC1=O [nefiracetam] | 0 | 0 | 0 | 0 | 0 | > 10 | > 10 | > 10 | > 10 | > 10 | 98.3 | 91.2 | 105 | 101 | 91.2 | 96.5 | 93.3 | 102 | 97.2 | 102 | 94.5 | 106 | 92.6 | 102 | 111 | 102 | 104 | 96.9 | 102 | 100 | 104 | 104 | 97.2 | 108 | 98.7 |
| COc1nc(N)nc2c1ncn2[C@@H]1O[C@H](CO)[C@@H](O)[C@@H]1O [nelarabine] | 0 | 0 | 0 | 0 | 0 | > 10 | > 10 | > 10 | > 10 | > 10 | 97.3 | 98 | 101 | 98.6 | 104 | 103 | 97.5 | 98.5 | 95.6 | 102 | 97.4 | 97.3 | 99.5 | 97.6 | 98.5 | 105 | 104 | 105 | 95.9 | 109 | 115 | 101 | 94.8 | 92.3 | 107 |
| COc1ccc([C@@H]2CC(=O)c3c(O)cc(O[C@@H]4O[C@H](CO)[C@@H](O)[C@H](O)[C@H]4O[C@@H]4O[C@@H](C)[C@H](O)[C@@H](O)[C@H]4O)cc3O2)cc1O [neohesperidin] | 0 | 0 | 0 | 0 | 0 | > 10 | > 10 | > 10 | > 10 | > 10 | 94.5 | 99.5 | 99.4 | 90.1 | 99.3 | 96.7 | 98.8 | 97.2 | 96 | 108 | 98.2 | 92.8 | 93.6 | 95.9 | 104 | 102 | 97.8 | 103 | 99.3 | 101 | 102 | 91.1 | 95.7 | 101 | 102 |
| CO[C@]12C[C@@H](COC(=O)c3cncc(Br)c3)CN(C)[C@@H]1Cc1cn(C)c3cccc2c13 [nicergoline] | 0 | 0 | 0 | 0 | 0 | > 10 | > 10 | > 10 | > 10 | > 10 | 97.7 | 96 | 102 | 95 | 95.4 | 97.1 | 94.8 | 100 | 95.4 | 96.8 | 93.7 | 101 | 92.6 | 97.4 | 108 | 111 | 101 | 102 | 118 | 98.2 | 108 | 112 | 111 | 99.7 | 96.6 |
| CCN(CC)Cc1nccn1-c1ccc([N+](=O)[O-])cc1C(=O)c1ccccc1Cl [nizofenone] | 0.3 | 0 | 0 | 0 | 0 | > 10 | > 10 | > 10 | > 10 | > 10 | 124 | 92.8 | 81.8 | 108 | 81.1 | 105 | 102 | 97.1 | 102 | 98.7 | 102 | 100 | 104 | 102 | 92.9 | 100 | 96 | 98.4 | 95.7 | 95.5 | 93.3 | 105 | 98.8 | 105 | 99.5 |
